Source: ChEMBL document CHEMBL4393675, “Discovery of (R)-5-((5-(1-methyl-1H-pyrazol-4-yl)-4-(methylamino)pyrimidin-2-yl)amino)-3-(piperidin-3-yloxy)picolinonitrile, a novel CHK1 inhibitor for hematologic malignancies” (Eur J Med Chem, 2019)

How the values were obtained:
Format in all cases: ADME, organism-based
[1] = Cmax in ICR mouse at 15 mg/kg, iv administered and measured for 1 min to 12 hrs by LC/MS/MS analysis; parameters: dose 15 mg/kg, route intravenous; conditions: in vivo
[2] = Volume of distribution at steady state in ICR mouse at 15 mg/kg, iv administered and measured for 1 min to 12 hrs by LC/MS/MS analysis; conditions: in vivo, read-out: Vdss
[3] = Half life in ICR mouse at 15 mg/kg, iv administered and measured for 1 min to 12 hrs by LC/MS/MS analysis; conditions: in vivo
[4] = AUC (0 to t) in ICR mouse at 15 mg/kg, iv administered and measured for 1 min to 12 hrs by LC/MS/MS analysis; conditions: in vivo
[5] = MRT in ICR mouse at 15 mg/kg, iv administered and measured for 1 min to 12 hrs by LC/MS/MS analysis; conditions: in vivo
[6] = AUC (0 to infinity) in ICR mouse at 15 mg/kg, iv administered and measured for 1 min to 12 hrs by LC/MS/MS analysis; parameters: dose 15 mg/kg, time infinity, route intravenous; conditions: in vivo

- Cmax [1]: 849 ng/mL
- Vd [2]: 6.42 L/kg
- half-life [3]: 2.23 h
- AUC(0-t) [4]: 363 ng·h/mL
- MRT [5]: 0.8 h
- AUC [6]: 370 ng·h/mL
SMILES: CNc1nc(Nc2cnc(C#N)c(O[C@@H]3CCCNC3)c2)ncc1-c1cnn(C)c1
